Reference: PubChem BioAssay (NCI)
Where “and” joins values, the source holds several entries; their conditions need not be identical. Identical values can stand only once.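 All cell lines were grown in 96-well plates and treated with compound for 48 hours. GI50 = concentration required for 50% inhibition of growth. TGI: total growth inhibition.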

Assays:
Assay in all cases: DTP human tumour cell line panel, 48 h
[1] = system: A498 renal
[2] = system: ACHN renal
[3] = system: EKVX NSCLC
[4] = system: K-562 leukemia
[5] = system: KM12 colon
[6] = system: SF-268 CNS
[7] = system: SF-295 CNS
[8] = system: SK-MEL-2 melanoma
[9] = system: SNB-75 CNS
[10] = system: UACC-62 melanoma

| SMILES | TGI [1] | TGI [2] | TGI [3] | TGI [4] [µM] | TGI [5] | TGI [6] | TGI [7] | TGI [8] | TGI [9] | TGI [10] | GI50 [1] | GI50 [2] | GI50 [3] | GI50 [4] [nM] | GI50 [5] | GI50 [6] | GI50 [7] | GI50 [8] | GI50 [9] | GI50 [10] |
| --- | --- | --- | --- | --- | --- | --- | --- | --- | --- | --- | --- | --- | --- | --- | --- | --- | --- | --- | --- | --- |
| COc1ccc(/C=C2\C(=O)N(NC(C)=O)c3ccccc32)cc1 | > 100 µM | > 100 µM | > 100 µM | > 100 | > 100 µM | > 100 µM | > 100 µM | > 100 µM | 93.8 µM | > 100 µM | – | – | – | – | – | – | – | – | – | – |
| COc1cc2nnc3c4cccnc4[nH]c3c2cc1OC | 26.2 µM and 12.4 µM | 3.54 µM and 1.52 µM | 50 µM and 8 µM | 50 | 50 µM and 15.4 µM | 12.9 µM and 4.53 µM | 50 µM and 6.92 µM | 50 µM and 37.9 µM | 21.9 µM and 7.45 µM | 12.5 µM and 9.65 µM | 9260 nM and 2740 nM | 298 nM and 333 nM | 3390 nM and 2430 nM | 577 | 2680 nM and 1910 nM | 1480 nM and 535 nM | 9.72 µM and 2.43 µM | 13800 nM and 11300 nM | 2350 nM and 1480 nM | 2900 nM and 2490 nM |
| Fc1ccc(NC(c2ccc(F)cc2)C2CCN(CCCCc3ccccc3)CC2)cc1 (centres undefined) | 2.21 µM | 3.05 µM | 4.42 µM | 4.96 | 3.67 µM | 3.83 µM | 2.86 µM | 3.54 µM | 2.43 µM | 3.46 µM | 671 nM | 1680 nM | 1700 nM | 2070 | 1850 nM | 1680 nM | 1.49 µM | 1810 nM | 1110 nM | 1830 nM |
| O=C(O)CN(CCN(CC(=O)O)CC(=O)O)CC(=O)O.[Mn+2] | > 100 µM | > 100 µM | > 100 µM | > 100 | > 100 µM | > 100 µM | > 100 µM | > 100 µM | > 100 µM | > 100 µM | > 100000 nM | > 100000 nM | > 100000 nM | > 100000 | > 100000 nM | > 100000 nM | > 100 µM | > 100000 nM | > 100000 nM | > 100000 nM |
| COc1cc(/C=C2\NC(=O)C(Cc3cc(OC)c(OC)c(C)c3OC)N(C(C)=O)C2=O)c(OC)c(C)c1OC (centres undefined) | > 100 µM | > 100 µM | > 100 µM | > 100 | > 100 µM | > 100 µM | > 100 µM | > 100 µM | > 100 µM | > 100 µM | – | – | – | – | – | – | – | – | – | – |
| CCCCCCCCCCCCCCNC(=O)Nc1ccc(Cl)c(Cl)c1 | > 26.4 µM | > 100 µM | 6.15 µM | > 100 | 8.44 µM | > 100 µM | > 24.8 µM | 5.69 µM | 9.57 µM | > 100 µM | 2130 nM | 3170 nM | 1970 nM | 8040 | 3000 nM | 3720 nM | 2.6 µM | 1930 nM | 1980 nM | 3690 nM |
| O=C1N[C@@H]2CCCC[C@@H]2C12CCCCC2 | > 100 µM | > 100 µM | > 100 µM | > 100 | > 100 µM | > 100 µM | > 100 µM | – | > 100 µM | > 100 µM | – | – | – | – | – | – | – | – | – | – |
| Cc1cc(Cl)nc(N(CCNc2ccnc3cc(Cl)ccc23)Cc2ccco2)n1 | 5.51 µM | 3.4 µM | 12.1 µM | 3.35 | 4.67 µM | 13.2 µM | 3.01 µM | 4.8 µM | 4.18 µM | 3.27 µM | 1740 nM | 1710 nM | 2680 nM | 1540 | 2010 nM | 3220 nM | 1.5 µM | 2180 nM | 1570 nM | 1690 nM |
| Cc1ccccc1C(CCCO)C(=O)O (centres undefined) | > 100 µM | > 100 µM | > 100 µM | > 100 | > 100 µM | > 100 µM | > 100 µM | > 100 µM | > 100 µM | > 100 µM | – | – | – | – | – | – | – | – | – | – |
| COc1ccc2nc(NC(=O)C(=O)CC(=O)c3ccc([N+](=O)[O-])cc3)sc2c1 | > 100 µM | > 100 µM | > 100 µM | > 100 | > 100 µM | > 100 µM | – | > 100 µM | > 100 µM | > 100 µM | – | – | – | – | – | – | – | – | – | – |
| ClCCOCCn1cnc2c(Cl)nc(Cl)nc21 | 32.1 µM | 27.5 µM | 27.7 µM | > 100 | 29.6 µM | 20.3 µM | 29.3 µM | – | 29.2 µM | 27.2 µM | 16200 nM | 14400 nM | 12500 nM | 15900 | 15900 nM | 6820 nM | 14 µM | – | 13800 nM | 14000 nM |
| COc1cc(/C=C/c2cc(/C=C/c3ccc(O)c(OC)c3)n(C(=O)c3ccccc3Br)n2)ccc1O | 8.71 µM | – | > 100 µM | > 100 | > 100 µM | > 100 µM | 35.1 µM | 5.92 µM | 15.4 µM | 8.77 µM | 3040 nM | – | 4720 nM | 1450 | 2220 nM | 2440 nM | 3.12 µM | 2370 nM | 2790 nM | 2640 nM |
| Cc1ccc(S(=O)(=O)NCCCCC(N)C(=O)O)cc1 (centres undefined) | > 100 µM | > 100 µM | > 100 µM | > 100 | > 100 µM | > 100 µM | > 100 µM | – | > 100 µM | > 100 µM | – | – | – | – | – | – | – | – | – | – |
| CC(=O)Oc1c(C(=O)[O-])cc(C(C)C)cc1C(C)C.CC(=O)Oc1c(C(=O)[O-])cc(C(C)C)cc1C(C)C.CC(=O)Oc1c(C(=O)[O-])cc(C(C)C)cc1C(C)C.CC(=O)Oc1c(C(=O)[O-])cc(C(C)C)cc1C(C)C.[Cu+2].[Cu+2] | 32.8 µM | > 100 µM | 73.2 µM | – | > 100 µM | > 100 µM | 70.5 µM | > 100 µM | 77.6 µM | 39.9 µM | 16000 nM | 75200 nM | 37500 nM | – | 19100 nM | 38700 nM | 24.4 µM | 40800 nM | 34300 nM | 18600 nM |
| CCSCC1CC(O)(c2ccccc2)C(c2ccccc2)C(c2ccc(F)cc2)O1 (centres undefined) | 3.7 µM | 5.54 µM | 6.13 µM | 6.53 | 3.81 µM | 5.45 µM | – | 4 µM | 3.67 µM | 5.5 µM | 2150 nM | 2220 nM | 1820 nM | 2110 | 1900 nM | 2150 nM | – | 1980 nM | 1520 nM | 1910 nM |
